According to patent US5393768A, “Leukotriene antagonists” (Eli Lilly and Company, priority 1993, dated 1995):

Assays:
[1] = system: LTD4 evoked contractions of guinea pig ileum; assay: Percent inhibition of LTD4 evoked ileal contractions (single submaximal LTD4 response, 5 minute drug exposure); format: cell-based, guinea pig (male, Hartley); conditions: Cavia porcellus
Protocol: Male, Hartley guinea pigs weighing 200-450 grams were killed by decapitation. A section of terminal ileum was removed, the lumen cleaned, and the tissue divided into 2.5 cm. segments. The ilea were mounted in 10 ml. tissue baths containing Krebs-bicarbonate solution of the following composition in mmoles/-liter: KCl, 4.6; CaCl2 ·2H2 O, 1.2; KH2 PO4, 1.2; MgSO4 ·7H2 O, 1.2; NaCl, 118.2; NaHCO3, 24.8; and dextrose, 10.0. The bath fluid was maintained at 37° C. and aerated with 95 percent oxygen and 5 percent CO2. In addition, the buffer contained 1×10^-6 M atropine to reduce ileal spontaneous activity. Isometric measurements were made with a Grass FTO3C force-displacement transducer and recorded on a Grass polygraph as change in grams of force. A passive force of 0.5 g. was applied to the tissues. After an appropriate equilibration period, single submaximal control responses to pure LTD4 were obtained. Following a five minute exposure of the ileum to an experimental drug, the control concentration of LTD was added to the tissue bath. The response of the ileum to LTD4 in the presence of the drug was compared to the response in the absence of the drug.

[2] = target: T1, LTD4 evoked contractions of guinea pig ileum (Cavia porcellus, UniProt Q2NNR5); assay: LTD4 antagonism, cumulative concentration-response curves (Schild pA2); format: cell-based; conditions: 30 minute incubation, negative log of KB
T1 construct: A section of terminal ileum was removed, the lumen cleaned, and the tissue divided into 2.5 cm. segments; from tissue; host or cells: terminal ileum of male Hartley guinea pigs
T1 sequence (Q2NNR5 1-340): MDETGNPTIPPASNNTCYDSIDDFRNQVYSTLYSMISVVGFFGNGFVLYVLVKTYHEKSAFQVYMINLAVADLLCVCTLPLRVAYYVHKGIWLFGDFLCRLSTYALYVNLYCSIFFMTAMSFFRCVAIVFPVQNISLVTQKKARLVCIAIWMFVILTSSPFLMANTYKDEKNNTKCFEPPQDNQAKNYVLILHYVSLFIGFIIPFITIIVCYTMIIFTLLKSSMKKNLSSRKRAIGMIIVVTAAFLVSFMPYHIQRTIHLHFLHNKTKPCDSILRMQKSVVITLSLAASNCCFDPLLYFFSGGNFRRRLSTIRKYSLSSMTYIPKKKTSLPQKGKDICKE
Protocol: For some of the drugs in this series a more detailed analysis of LTD4 antagonism was made. In these experiments, cumulative concentration-response curves were obtained to LTD4 in guinea pig ileum and trachea. This was followed by a 30 minute incubation with various concentrations of the experimental drug. The concentration response curve to LTD4 was then repeated in the presence of the antagonist. Only one concentration of antagonist was used on a single tissue. KB values were calculated by the method of Furchgott [Ann. N.Y. Acad. Sci., 139, 553 (1967)] using the following equation. [formula]
Dose ratio refers to the concentration of agonist required to elicit 50 percent of the maximal response (ED50) in the presence of the antagonist divided by the ED50 in the absence of the antagonist. Calculations were performed with the aid of a computer and a digital plotter.

- Kb [2]: 6.31 µM
Structure (SMILES): CCCc1c(C[S+]([O-])Cc2ccc(-c3nnn[nH]3)cc2)ccc(C(C)=O)c1O (stereo not shown) [Example 53, 5-[4-(4-Acetyl-3-hydroxy-2-propylbenzylsulfinylmethyl)phenyl]-tetrazole]
- inhibition at 0.1 µM ([1]; Compound concentration 1 × 10^-7 M): 14%
- inhibition at 3 µM ([1]; Compound concentration 3 × 10^-6 M): 39%
- inhibition at 0.3 µM ([1]; Compound concentration 3 × 10^-7 M): 4%
